This note sets out measurements from ChEMBL document CHEMBL1201862, “PubChem BioAssay data set” (2004).

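Exposure lasted 48 hours, with cells grown in 96-well plates and compounds tested at five concentrations. GI50 is the concentration that inhibits growth by half.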 The source made the active and inactive calls. Cut-off read from the data, not from the text of the source: active = GI50 up to about 1.1 µM and inactive = higher.

Some test systems named below: Malme-3M; OVCAR-5; UACC-62; NCI-H460; A498; IGROV-1; SK-MEL-5; SK-MEL-28; HOP-62; SF-268; CAKI-1; KM12; OVCAR-8; OVCAR-3; UACC-257; T47D; MDA-N; Hs-578T; DU-145.
What all share (assay): NCI anticancer screen, dose series, 48 h

As for `CCCC/C=C1\CCC(CN2CCCC2)C1=O` (stereo unspecified), the GI50 with Malme-3M is 17.8 µM (inactive); in the test with OVCAR-5, 19.1 µM (inactive); in the test on UACC-62, 17.1 µM (inactive); in the test on NCI-H460, 19.9 µM (inactive); with A498, 14.7 µM (inactive); in the test with IGROV-1, 18.4 µM (inactive). Besides, the GI50 in the test on SK-MEL-5 was 17.3 µM (inactive); in the test with SK-MEL-28, 15.7 µM (inactive); in the test on HOP-62 it was 18.4 µM (inactive); in the test with SF-268, 16 µM (inactive); with CAKI-1, > 10 µM (inactive); in the test on KM12, 2.61 µM (inactive). For the same compound, the figures for the GI50 in the test on OVCAR-8, in the test on OVCAR-3 and in the test with UACC-257 were 15.1 µM (inactive), 17.1 µM (inactive) and 18.1 µM (inactive), respectively.

`CC(=O)c1c(O)nnc(-c2ccc(Cl)cc2)c1-c1ccc(Cl)cc1`: the GI50 with T47D is 31.5 µM (inactive); in the test on Malme-3M, 28.5 µM (inactive); in the test with OVCAR-5, > 100 µM (inactive); in the test with UACC-62, 12.4 µM (inactive); with NCI-H460, 33 µM (inactive); with A498, 26.7 µM (inactive). Moreover, the GI50 was 33.7 µM (inactive) in the test on MDA-N; 53.1 µM (inactive) in the test on Hs-578T; 26.2 µM (inactive) in the test on IGROV-1; 29 µM (inactive) in the test with SK-MEL-5; 54.8 µM (inactive) in the test on DU-145; 41.9 µM (inactive) with SK-MEL-28. The GI50 in the test on SF-268 is > 100 µM (inactive); in the test with CAKI-1, 31.8 µM (inactive); in the test with KM12, 35.2 µM (inactive); in the test with OVCAR-8, 31.5 µM (inactive); in the test on OVCAR-3, 25.1 µM (inactive); in the test on UACC-257 it was 39 µM (inactive).

On to `CCN(CCCl)CCCCCNc1c2ccccc2nc2ccc(OC)cc12`, for which the GI50 is 2.04 µM (inactive) in the test on Malme-3M; 1.55 µM (inactive) with OVCAR-5; 0.402 µM (active) in the test on UACC-62; 0.07 µM (active) in the test on NCI-H460; 1.26 µM (inactive) in the test on A498; 0.578 µM (active) in the test on IGROV-1. The GI50 in the test with SK-MEL-5 was 1.1 µM (active); in the test with SK-MEL-28, 2.72 µM (inactive); in the test with HOP-62, 2.14 µM (inactive); in the test on SF-268 it was 0.597 µM (active); in the test on CAKI-1, 2.84 µM (inactive); in the test on KM12, 0.454 µM (active). The GI50 is 0.533 µM (active) in the test on OVCAR-8, 1.83 µM (inactive) in the test on OVCAR-3 and 3.22 µM (inactive) in the test with UACC-257.

Take `CCOC(=O)/C=C/C(=O)O/C=C/[N+](=O)[O-]`: the GI50 in the test on T47D, in the test on OVCAR-5, in the test on UACC-62, in the test on NCI-H460, in the test on A498 and in the test with MDA-N was > 100 µM (inactive) each time. Further, the GI50 in the test with Hs-578T, with IGROV-1, in the test with SK-MEL-5, in the test with DU-145, in the test with HOP-62 and in the test on SF-268 was > 100 µM (inactive) in each case. Besides, the GI50 is 33.3 µM (inactive) in the test with CAKI-1; > 100 µM (inactive) in the test with KM12; > 100 µM (inactive) in the test with OVCAR-8; > 100 µM (inactive) in the test with OVCAR-3; > 100 µM (inactive) in the test on UACC-257.

With `Cc1nc(O)nc(CC(O)(c2ccccc2)c2ccccc2)c1-c1ccccc1`, the GI50 in the test with Malme-3M, in the test with OVCAR-5, in the test on UACC-62, in the test with NCI-H460, with A498 and in the test on IGROV-1 was > 100 µM (inactive) throughout. Moreover, the GI50 in the test on SK-MEL-5, in the test on SK-MEL-28, in the test with HOP-62, with SF-268, in the test with CAKI-1 and with KM12 was > 100 µM (inactive) throughout. For the same compound, the GI50 in the test on OVCAR-8, with OVCAR-3 and in the test on UACC-257 was > 100 µM (inactive) each time.

As to `CS/C(=N/C(=O)c1ccccc1Cl)SCCS/C(=N\C(=O)c1ccccc1Cl)SC`, the GI50 with Malme-3M, in the test on OVCAR-5, in the test on UACC-62, with NCI-H460, in the test with A498 and in the test on IGROV-1 was > 100 µM (inactive) in each case. Besides, the GI50 in the test with SK-MEL-5, with SK-MEL-28, in the test on HOP-62, in the test on SF-268, in the test with CAKI-1 and in the test on KM12 was > 100 µM (inactive) throughout. Also, the GI50 in the test on OVCAR-8, with OVCAR-3 and in the test with UACC-257 was > 100 µM (inactive) each time.

`COC(=O)c1ccc(C(=O)OC)c2nc3cc(Cl)ccc3nc12`: the GI50 with Malme-3M, in the test on OVCAR-5, in the test on UACC-62, with NCI-H460, in the test on A498 and in the test on IGROV-1 was > 100 µM (inactive) each time. Further, the GI50 in the test with SK-MEL-5, in the test on SK-MEL-28, in the test with HOP-62, in the test on SF-268, in the test with CAKI-1 and in the test on KM12 was > 100 µM (inactive) throughout. In addition, the GI50 in the test with OVCAR-8, in the test with OVCAR-3 and in the test on UACC-257 was > 100 µM (inactive) throughout.

For `N#CC1=C(N)Oc2c(ccc3cccnc23)C1c1ccccc1` (stereo unspecified), the GI50 in the test on Malme-3M is 15.2 µM (inactive); in the test with OVCAR-5, 72.4 µM (inactive); with UACC-62, 0.697 µM (active); in the test with NCI-H460, 0.738 µM (active); in the test with A498, 2.21 µM (inactive); with IGROV-1, 0.847 µM (active). Besides, the GI50 in the test on SK-MEL-5 is 0.811 µM (active); in the test on SK-MEL-28, 6.12 µM (inactive); in the test with HOP-62, 1.16 µM (inactive); in the test on SF-268, 2.73 µM (inactive); with CAKI-1, 0.619 µM (active); in the test on KM12, 0.441 µM (active). Besides, the GI50 in the test with OVCAR-8 is 3.38 µM (inactive); in the test on OVCAR-3 it was 0.608 µM (active); with UACC-257 it was 3.61 µM (inactive).

For the compound `CC1CC/C(=C\c2ccc(F)cc2)C2=C1C(c1ccc(F)cc1)n1c(s/c(=C/c3cccc(Br)c3)c1=O)=N2` (stereo unspecified), the GI50 in the test on OVCAR-5, in the test on UACC-62, in the test with A498, with MDA-N, in the test on Hs-578T and with IGROV-1 was > 100 µM (inactive) in each case. The GI50 in the test with SK-MEL-5, in the test on DU-145, in the test on SK-MEL-28, in the test with HOP-62, in the test on SF-268 and in the test on CAKI-1 was > 100 µM (inactive) in each case. For the same compound, the GI50 with KM12, in the test with OVCAR-8 and in the test on UACC-257 was > 100 µM (inactive) each time.

Regarding `[N-]=[N+]=NC12CC3C4CC5CC3C(C1)C(C5)C4C2`, the GI50 in the test on Malme-3M, in the test on OVCAR-5, in the test on UACC-62, in the test with NCI-H460, in the test on A498 and in the test on IGROV-1 was > 100 µM (inactive) each time. The GI50 with SK-MEL-5, with SK-MEL-28, in the test on HOP-62, in the test on SF-268, in the test with CAKI-1 and in the test with KM12 was > 100 µM (inactive) each time. The GI50 with OVCAR-8, in the test on OVCAR-3 and with UACC-257 was > 100 µM (inactive) in each case.

As for `COc1ccc(C[C@H]2COC(=O)[C@@H]2Cc2ccccc2)cc1OC`, the GI50 with T47D, with Malme-3M, in the test with OVCAR-5, with NCI-H460, in the test with A498 and in the test on MDA-N was > 100 µM (inactive) each time. For the same compound, the GI50 in the test with Hs-578T, with IGROV-1, with SK-MEL-5, in the test with DU-145, with SK-MEL-28 and with HOP-62 was > 100 µM (inactive) in each case. Moreover, the GI50 in the test with KM12, with OVCAR-8, with OVCAR-3 and with UACC-257 was > 100 µM (inactive) in each case.

Turning to `CCOC(=O)C12CCSC1C1(C#N)C(C#N)=CC2(N=P(c2ccccc2)(c2ccccc2)c2ccccc2)n2c(=O)n(-c3ccccc3)c(=O)n21` (stereo unspecified), the GI50 is 44.6 µM (inactive) in the test on Malme-3M; > 100 µM (inactive) in the test on OVCAR-5; 27.5 µM (inactive) in the test with UACC-62; 37.7 µM (inactive) in the test with NCI-H460; 51.5 µM (inactive) in the test on A498; 59.8 µM (inactive) in the test on IGROV-1. Besides, the GI50 in the test on SK-MEL-5 was 25.2 µM (inactive); in the test on SK-MEL-28, 27.5 µM (inactive); in the test on HOP-62, 46.2 µM (inactive); in the test on SF-268 it was 35.1 µM (inactive); in the test with CAKI-1, 28.6 µM (inactive); in the test with KM12, 32.6 µM (inactive). Moreover, the GI50 in the test with OVCAR-8 is 47.1 µM (inactive); with OVCAR-3, 25.4 µM (inactive); with UACC-257 it was 33.6 µM (inactive).
